Results as given in ChEMBL document CHEMBL1201862, “PubChem BioAssay data set” (2004).
Values belong to the compound of their own block, whether it stands above or below them. The source made the active and inactive calls.

Assays:
[1] = target: Sphingosine 1-phosphate receptor 2 (Homo sapiens, UniProt O95136); test: Dose Response Cell Based Assay for Agonists of the S1P2 Receptor. [Related pubchem assays: 729, 736, 843 ]; format: functional
[2] = target: Ubiquitin carboxyl-terminal hydrolase BAP1 (Homo sapiens, UniProt Q92560); test: inhibition of BAP1 ubiquitin hydrolase activity – biochemical, dose response (AID 714); format: functional
Sequence of Ubiquitin carboxyl-terminal hydrolase BAP1 (Q92560 whole entry): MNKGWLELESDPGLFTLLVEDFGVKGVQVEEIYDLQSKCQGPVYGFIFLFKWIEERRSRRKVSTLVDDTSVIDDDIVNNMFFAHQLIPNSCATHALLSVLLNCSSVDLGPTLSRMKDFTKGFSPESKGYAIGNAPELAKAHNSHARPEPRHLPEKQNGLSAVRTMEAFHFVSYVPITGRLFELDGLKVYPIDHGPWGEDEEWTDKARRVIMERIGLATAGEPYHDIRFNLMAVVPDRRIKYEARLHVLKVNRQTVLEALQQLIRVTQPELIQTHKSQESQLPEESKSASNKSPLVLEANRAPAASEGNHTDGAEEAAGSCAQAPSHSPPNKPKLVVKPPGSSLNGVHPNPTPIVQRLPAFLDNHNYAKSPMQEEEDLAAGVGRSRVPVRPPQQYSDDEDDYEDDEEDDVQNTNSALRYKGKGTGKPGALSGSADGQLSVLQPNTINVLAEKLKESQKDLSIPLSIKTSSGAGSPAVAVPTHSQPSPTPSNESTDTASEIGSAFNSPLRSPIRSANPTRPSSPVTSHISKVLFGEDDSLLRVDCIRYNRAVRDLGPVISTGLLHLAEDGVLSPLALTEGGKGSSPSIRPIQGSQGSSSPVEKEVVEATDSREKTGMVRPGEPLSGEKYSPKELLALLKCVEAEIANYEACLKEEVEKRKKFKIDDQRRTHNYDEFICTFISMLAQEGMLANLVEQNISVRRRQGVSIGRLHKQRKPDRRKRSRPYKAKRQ

[3] = target: Glutathione-S-transferase (Schistosoma japonicum, UniProt Q26513); test: GST-antibody interaction or FRET quenching – biochemical, TR-FRET, artefact control for Vif-APOBEC3G degradation inhibitor project, dose response (AID 1117362); format: functional
Sequence of Glutathione-S-transferase (Q26513 whole entry): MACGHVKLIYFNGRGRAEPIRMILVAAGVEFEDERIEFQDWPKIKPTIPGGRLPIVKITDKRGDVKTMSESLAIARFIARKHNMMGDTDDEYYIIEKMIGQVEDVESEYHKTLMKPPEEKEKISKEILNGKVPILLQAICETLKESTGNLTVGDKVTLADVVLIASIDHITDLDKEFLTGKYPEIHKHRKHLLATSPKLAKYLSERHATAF

Bcl-2-like protein 10 = target: T1, Bcl-2-like protein 10 (Homo sapiens, UniProt Q9HD36); test: Bcl-B/TR3 peptide binding disruption – biochemical, fluorescence polarization, FITC-TR3 peptide, selectivity assay for Bfl-1 inhibitor project, primary screen (AID 748);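 note: fluorescence polarization from a fluorescein-labelled TR3 peptide binding purified Bcl-B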
T1 sequence (Q9HD36 whole entry): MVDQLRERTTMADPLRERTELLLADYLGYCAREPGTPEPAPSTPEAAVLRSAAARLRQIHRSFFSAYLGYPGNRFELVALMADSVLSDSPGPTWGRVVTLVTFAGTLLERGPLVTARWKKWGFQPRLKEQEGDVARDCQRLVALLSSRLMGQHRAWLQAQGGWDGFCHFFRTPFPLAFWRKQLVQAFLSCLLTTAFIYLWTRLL

[4] = viability loss in Vero cells – cytotoxicity control for Vif-APOBEC3G degradation inhibitor project, dose response (AID 1117358); format: functional; conditions: Vero
[5] = HIV-1 Vif–A3G interaction blockers – biochemical, TR-FRET, GST-Vif 1-94, biotin-A3G peptide, dose response retest, primary screen (AID 1117319); format: functional;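 note: TR-FRET signal of purified GST-Vif binding a biotinylated A3G peptide; inhibitors lower the FRET signal by blocking Vif and A3G binding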
[6] = target: T2, Sentrin-specific protease 7 (Homo sapiens, UniProt Q9BQF6); format: functional;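 note: Luminescence-based dose-response confirmation of ultra-high-throughput screening hits, measuring inhibition of SENP7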
T2 sequence (Q9BQF6 whole entry): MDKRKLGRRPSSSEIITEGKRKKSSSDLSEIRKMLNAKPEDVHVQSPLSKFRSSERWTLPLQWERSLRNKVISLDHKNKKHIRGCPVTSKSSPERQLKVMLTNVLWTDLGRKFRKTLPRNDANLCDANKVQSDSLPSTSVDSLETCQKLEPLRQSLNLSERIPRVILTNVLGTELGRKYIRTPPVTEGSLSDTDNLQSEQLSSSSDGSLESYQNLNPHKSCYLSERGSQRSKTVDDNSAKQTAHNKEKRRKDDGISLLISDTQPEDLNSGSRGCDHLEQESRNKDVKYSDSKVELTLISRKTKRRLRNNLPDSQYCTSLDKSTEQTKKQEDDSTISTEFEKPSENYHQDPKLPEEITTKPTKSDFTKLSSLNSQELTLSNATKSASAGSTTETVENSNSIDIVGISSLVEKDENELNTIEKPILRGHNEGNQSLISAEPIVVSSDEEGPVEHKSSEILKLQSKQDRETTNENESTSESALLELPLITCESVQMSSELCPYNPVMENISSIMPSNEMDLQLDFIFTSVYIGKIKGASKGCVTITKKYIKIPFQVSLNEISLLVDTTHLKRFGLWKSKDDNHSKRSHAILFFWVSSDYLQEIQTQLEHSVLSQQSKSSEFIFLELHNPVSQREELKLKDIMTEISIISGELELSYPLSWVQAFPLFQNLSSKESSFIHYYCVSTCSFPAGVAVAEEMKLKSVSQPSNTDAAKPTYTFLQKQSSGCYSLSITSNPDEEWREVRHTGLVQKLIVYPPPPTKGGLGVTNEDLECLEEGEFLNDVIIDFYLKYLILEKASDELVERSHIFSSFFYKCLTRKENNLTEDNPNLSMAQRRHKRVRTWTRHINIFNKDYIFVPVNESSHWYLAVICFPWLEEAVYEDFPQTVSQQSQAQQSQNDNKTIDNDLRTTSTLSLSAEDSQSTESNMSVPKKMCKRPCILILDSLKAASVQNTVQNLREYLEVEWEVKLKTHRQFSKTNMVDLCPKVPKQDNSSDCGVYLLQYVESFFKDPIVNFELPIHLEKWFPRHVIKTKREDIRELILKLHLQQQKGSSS

[7] = target: T3, Sentrin-specific protease 8 (Homo sapiens, UniProt Q96LD8); format: functional;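 note: luminescence read-out of SENP8 inhibition, dose-response confirmation following an ultra-high-throughput screen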
T3 sequence (Q96LD8 whole entry): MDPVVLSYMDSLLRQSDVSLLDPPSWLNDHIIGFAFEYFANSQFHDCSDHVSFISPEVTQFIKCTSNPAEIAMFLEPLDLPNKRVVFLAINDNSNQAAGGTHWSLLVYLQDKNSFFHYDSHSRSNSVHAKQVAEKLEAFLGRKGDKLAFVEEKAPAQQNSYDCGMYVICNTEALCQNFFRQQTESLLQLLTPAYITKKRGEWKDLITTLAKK

Caspase-8 = Caspase-8 (Homo sapiens, UniProt Q14790); test: inhibitors of purified CASP8 protease – biochemical, Z-IETD-R110 fluorescence, cherry-picked samples, selectivity assay for caspase-6 inhibitor project, dose response (AID 743294)
Sequence of Caspase-8 (Q14790 217-374 limits assumed): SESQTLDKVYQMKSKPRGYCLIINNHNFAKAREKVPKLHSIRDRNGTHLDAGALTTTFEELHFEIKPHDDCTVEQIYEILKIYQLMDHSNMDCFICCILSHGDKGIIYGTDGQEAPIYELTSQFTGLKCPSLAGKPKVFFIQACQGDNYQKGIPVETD
Sequence of Caspase-8 (Q14790 385-479 limits assumed): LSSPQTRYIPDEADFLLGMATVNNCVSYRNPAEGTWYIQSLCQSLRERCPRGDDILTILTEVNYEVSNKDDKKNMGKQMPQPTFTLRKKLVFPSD

[8] = target: T4, Mitochondrial peptide methionine sulfoxide reductase (Bos taurus, UniProt P54149); test: Absorbance-based biochemical high throughput dose response assay for activators of Methionine sulfoxide reductase A (MsrA).; format: functional
T4 sequence (P54149 whole entry): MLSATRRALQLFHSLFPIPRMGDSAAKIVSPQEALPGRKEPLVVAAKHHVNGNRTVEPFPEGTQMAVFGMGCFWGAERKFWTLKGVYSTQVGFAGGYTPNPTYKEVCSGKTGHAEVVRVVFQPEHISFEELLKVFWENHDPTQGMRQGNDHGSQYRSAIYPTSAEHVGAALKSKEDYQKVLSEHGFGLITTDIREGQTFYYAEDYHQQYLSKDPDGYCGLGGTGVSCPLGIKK

Caspase-6 = Caspase-6 (Homo sapiens, UniProt P55212); test: inhibition of CASP6 peptide cleavage – biochemical, VEID-R110 fluorescence, cherry-pick, dose response (AID 720632)
Sequence of Caspase-6 (P55212 24-179 limits assumed): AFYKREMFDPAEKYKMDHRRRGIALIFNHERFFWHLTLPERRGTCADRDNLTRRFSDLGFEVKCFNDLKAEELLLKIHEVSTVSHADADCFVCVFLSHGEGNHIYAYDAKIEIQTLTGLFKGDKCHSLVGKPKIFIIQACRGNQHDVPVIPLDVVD
Sequence of Caspase-6 (P55212 194-293 limits assumed): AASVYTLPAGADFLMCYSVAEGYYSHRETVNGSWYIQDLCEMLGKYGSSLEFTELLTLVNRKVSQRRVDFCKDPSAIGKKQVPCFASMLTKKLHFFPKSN

Caspase-3 = target: T5, Caspase-3 (Homo sapiens, UniProt P42574); format: functional;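 note: Dose-response selectivity test against caspase-3 for candidate inhibitors of sentrin-specific proteases (SENPs)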
T5 sequence (P42574 whole entry): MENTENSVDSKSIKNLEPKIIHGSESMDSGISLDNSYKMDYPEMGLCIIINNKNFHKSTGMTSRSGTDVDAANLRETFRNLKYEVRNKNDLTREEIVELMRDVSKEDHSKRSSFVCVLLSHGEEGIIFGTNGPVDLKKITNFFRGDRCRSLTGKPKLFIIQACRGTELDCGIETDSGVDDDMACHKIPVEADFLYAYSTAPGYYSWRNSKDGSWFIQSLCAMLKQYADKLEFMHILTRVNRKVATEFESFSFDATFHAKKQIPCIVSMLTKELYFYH

[9] = target: T6, Sentrin-specific protease 6 (Homo sapiens, UniProt Q9GZR1); format: functional;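 note: Luminescence-based dose-response confirmatory assay of SENP6 inhibition, following up an ultra-high-throughput screen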
T6 sequence (Q9GZR1 whole entry): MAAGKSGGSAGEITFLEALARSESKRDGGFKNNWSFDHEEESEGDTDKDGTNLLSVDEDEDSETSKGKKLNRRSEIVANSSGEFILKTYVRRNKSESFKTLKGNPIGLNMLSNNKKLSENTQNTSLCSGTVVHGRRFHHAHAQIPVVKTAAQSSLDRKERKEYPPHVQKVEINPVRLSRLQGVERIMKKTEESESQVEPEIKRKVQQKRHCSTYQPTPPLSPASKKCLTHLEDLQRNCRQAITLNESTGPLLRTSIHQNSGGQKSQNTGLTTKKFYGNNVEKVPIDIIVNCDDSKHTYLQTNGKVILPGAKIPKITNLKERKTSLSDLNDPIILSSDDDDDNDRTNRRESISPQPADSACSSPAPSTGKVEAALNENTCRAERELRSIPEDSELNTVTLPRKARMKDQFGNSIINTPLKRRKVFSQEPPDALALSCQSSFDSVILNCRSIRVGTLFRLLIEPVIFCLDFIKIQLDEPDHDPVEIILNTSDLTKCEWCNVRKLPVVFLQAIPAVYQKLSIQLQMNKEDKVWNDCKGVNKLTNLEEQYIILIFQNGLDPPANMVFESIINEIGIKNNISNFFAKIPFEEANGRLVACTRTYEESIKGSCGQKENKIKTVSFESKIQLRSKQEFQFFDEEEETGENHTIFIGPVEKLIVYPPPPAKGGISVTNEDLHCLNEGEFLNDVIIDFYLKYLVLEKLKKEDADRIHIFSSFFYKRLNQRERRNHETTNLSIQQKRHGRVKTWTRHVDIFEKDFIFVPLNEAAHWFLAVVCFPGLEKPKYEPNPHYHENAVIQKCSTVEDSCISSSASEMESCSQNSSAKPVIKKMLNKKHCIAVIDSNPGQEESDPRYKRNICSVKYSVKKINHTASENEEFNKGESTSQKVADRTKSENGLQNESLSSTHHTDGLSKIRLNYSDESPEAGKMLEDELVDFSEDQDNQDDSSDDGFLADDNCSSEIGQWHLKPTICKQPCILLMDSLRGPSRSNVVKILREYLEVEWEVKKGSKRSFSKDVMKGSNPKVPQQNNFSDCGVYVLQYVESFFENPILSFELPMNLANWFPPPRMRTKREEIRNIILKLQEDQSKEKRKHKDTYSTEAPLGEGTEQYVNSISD

Caspase-7 = Caspase-7 (Homo sapiens, UniProt P55210); test: caspase-7 enzyme inhibition, selectivity check – biochemical, DEVD-R110 fluorescence, cherry-pick, selectivity assay for caspase-6 inhibitor project, dose response (AID 743295); format: functional
Sequence of Caspase-7 (P55210 24-198 limits assumed): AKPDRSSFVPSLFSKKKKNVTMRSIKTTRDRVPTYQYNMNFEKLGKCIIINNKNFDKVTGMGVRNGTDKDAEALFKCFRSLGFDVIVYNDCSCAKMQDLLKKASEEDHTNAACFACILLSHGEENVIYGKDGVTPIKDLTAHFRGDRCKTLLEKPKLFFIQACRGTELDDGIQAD
Sequence of Caspase-7 (P55210 207-303 limits assumed): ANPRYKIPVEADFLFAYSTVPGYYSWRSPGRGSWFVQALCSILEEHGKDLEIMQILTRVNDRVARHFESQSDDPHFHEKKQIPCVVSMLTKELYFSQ

[10] = YAP1 overexpression rescue of CTGF inhibition – DLD1 cells, RT-qPCR, cherry-pick, mechanism study for YAP1 pathway inhibitor project, dose response (AID 1053127); format: functional, cell-based; conditions: DLD-1
[11] = target: G-protein coupled receptor 183 (Homo sapiens, UniProt P32249); test: SAR confirmation of small molecule antagonists of the EBI2 receptor via a luminescent beta-arrestin assa.; format: functional
Sequence of G-protein coupled receptor 183 (P32249 whole entry): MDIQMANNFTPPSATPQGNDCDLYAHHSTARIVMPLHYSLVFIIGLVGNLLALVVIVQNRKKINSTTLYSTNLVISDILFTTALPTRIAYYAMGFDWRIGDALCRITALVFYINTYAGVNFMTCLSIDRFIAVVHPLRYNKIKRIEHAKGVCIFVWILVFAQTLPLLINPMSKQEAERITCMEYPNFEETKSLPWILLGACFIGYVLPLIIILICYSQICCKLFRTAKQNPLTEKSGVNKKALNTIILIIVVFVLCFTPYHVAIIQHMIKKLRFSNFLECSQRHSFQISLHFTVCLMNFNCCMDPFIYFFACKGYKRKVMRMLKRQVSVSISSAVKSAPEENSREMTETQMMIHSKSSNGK

Phospholipase D2 = Phospholipase D2 (Homo sapiens, UniProt O14939); test: PLD2 Cellular Concentration Response Study.; format: functional
Sequence of Phospholipase D2 (O14939 whole entry): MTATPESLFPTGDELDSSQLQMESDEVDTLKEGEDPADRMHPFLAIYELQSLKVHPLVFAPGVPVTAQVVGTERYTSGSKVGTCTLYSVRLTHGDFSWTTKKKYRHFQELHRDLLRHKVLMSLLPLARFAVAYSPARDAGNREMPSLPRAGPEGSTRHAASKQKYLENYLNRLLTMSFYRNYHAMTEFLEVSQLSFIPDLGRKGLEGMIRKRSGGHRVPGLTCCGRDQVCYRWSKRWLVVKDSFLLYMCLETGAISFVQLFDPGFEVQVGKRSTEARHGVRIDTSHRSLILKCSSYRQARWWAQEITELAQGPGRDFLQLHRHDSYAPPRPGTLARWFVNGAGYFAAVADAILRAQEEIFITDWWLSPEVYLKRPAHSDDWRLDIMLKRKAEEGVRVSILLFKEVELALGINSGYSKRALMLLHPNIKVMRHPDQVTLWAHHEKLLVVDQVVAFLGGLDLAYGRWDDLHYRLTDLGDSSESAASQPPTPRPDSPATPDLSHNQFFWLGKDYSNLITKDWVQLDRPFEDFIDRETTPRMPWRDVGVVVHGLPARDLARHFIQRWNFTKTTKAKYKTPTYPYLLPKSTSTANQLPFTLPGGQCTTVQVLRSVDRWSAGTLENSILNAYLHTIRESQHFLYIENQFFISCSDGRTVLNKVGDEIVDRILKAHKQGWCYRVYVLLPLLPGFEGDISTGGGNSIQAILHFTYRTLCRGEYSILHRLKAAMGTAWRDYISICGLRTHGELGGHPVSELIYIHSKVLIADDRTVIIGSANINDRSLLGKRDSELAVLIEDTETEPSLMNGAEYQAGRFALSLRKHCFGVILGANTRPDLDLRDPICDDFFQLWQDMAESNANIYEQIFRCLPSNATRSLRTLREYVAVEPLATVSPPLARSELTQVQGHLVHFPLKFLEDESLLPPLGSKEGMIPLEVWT

Phospholipase D1 = Phospholipase D1 (Homo sapiens, UniProt Q13393); test: PLD1 Cellular Concentration Response Study.; format: functional
[12] = toxicity to human hepatoma HepG2 cells – cell-based, cherry-picked samples, cytotoxicity control, dose response (AID 1159577); format: functional
[13] = P. falciparum Dd2 growth inhibitors, dose response, SYBR Green, cherry-picked samples (AID 1159567); format: functional, cell-based
[14] = toxicity to human HepG2 hepatoma cells – cell-based, plate reader, dry powder samples, cytotoxicity control, dose response (AID 1159569); format: functional;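 note: inhibitor potency with signal falling toward the positive control level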
[15] = growth inhibition of PfATP4-mutant resistant parasites – NITD609-resistant line, SYBR Green, dry powder, dose response (AID 1159571); format: functional, cell-based;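 note: parasites synchronized at ring stage by sorbitol before testing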
[16] = Dd2 malaria parasite growth inhibition potency – SYBR Green, dry powder samples, dose response (AID 1159566); format: functional, cell-based;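 note: potency for growth inhibition with lower SYBR green DNA signal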
[17] = growth inhibition of yeast DHODH-expressing 3D7 parasites – SYBR Green, dry powder samples, dose response (AID 1159570); format: functional, cell-based;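 note: parasite growth measured after 72 hours of compound exposure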
[18] = target: Metabotropic glutamate receptor 7 (Homo sapiens, UniProt Q14831); test: potentiation of glutamate EC20 at mGlu7 – cell-based, calcium mobilization, Galpha15, dose response (AID 743384); format: functional
Sequence of Metabotropic glutamate receptor 7 (Q14831 whole entry): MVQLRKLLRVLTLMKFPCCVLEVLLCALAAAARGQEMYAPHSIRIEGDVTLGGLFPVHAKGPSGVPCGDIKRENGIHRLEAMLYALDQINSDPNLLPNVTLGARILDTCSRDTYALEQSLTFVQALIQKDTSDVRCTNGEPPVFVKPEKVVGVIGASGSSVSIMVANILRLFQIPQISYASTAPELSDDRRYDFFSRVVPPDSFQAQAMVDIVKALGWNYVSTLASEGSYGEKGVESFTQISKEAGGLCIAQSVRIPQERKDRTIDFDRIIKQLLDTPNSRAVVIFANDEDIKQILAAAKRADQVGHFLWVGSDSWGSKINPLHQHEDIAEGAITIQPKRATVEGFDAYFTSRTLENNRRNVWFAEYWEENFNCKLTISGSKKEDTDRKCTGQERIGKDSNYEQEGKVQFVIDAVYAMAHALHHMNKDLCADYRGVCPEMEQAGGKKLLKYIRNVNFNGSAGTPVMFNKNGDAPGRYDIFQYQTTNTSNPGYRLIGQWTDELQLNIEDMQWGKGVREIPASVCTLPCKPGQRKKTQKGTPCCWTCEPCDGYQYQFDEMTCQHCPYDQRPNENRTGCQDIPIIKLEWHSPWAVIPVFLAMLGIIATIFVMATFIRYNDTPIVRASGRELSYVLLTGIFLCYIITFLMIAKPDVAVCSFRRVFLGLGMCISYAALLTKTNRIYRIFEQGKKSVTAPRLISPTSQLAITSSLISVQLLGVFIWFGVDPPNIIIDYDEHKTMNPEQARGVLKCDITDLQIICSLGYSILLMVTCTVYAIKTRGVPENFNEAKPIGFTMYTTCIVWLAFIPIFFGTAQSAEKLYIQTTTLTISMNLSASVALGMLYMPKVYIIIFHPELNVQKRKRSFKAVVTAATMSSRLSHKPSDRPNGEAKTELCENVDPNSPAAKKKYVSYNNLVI

[19] = viability loss in A549 lung cancer cells – cell-based, CellTiter-Glo luminescence, dry powder, set 5, cytotoxicity control, dose response (AID 743158); format: functional
[20] = viability loss in HepG2 hepatoma cells – cell-based, ATP luminescence, dry powder, set 2, cytotoxicity control, dose response (AID 743129); format: functional
[21] = viability loss in HEK293T cells – cell-based, ATP luminescence, dry powder, set 3, cytotoxicity control, dose response (AID 743131); format: functional; conditions: HEK293
[22] = IC50 of insulin release inhibition, rat insulinoma INS-1E line, 5 mM glucose, cell-based (AID 1117331); format: functional
cells = format: functional, cell-based; conditions: INS-1E

Sequence of Sphingosine 1-phosphate receptor 2 (O95136 whole entry): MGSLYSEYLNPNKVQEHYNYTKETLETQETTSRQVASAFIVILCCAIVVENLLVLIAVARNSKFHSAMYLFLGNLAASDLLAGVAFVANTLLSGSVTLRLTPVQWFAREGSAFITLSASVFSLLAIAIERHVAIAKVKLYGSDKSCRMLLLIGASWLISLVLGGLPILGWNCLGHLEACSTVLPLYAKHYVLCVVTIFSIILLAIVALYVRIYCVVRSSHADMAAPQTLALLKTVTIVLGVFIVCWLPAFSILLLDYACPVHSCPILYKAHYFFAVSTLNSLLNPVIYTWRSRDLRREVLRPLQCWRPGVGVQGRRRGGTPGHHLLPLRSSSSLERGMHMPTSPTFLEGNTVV

EC50 [1]: > 50 µM (not active)
SMILES: Oc1nc(-c2cccs2)nc2ccccc12

IC50 [2]: > 50 µM (not active)
SMILES: Cc1sc(NC(=O)CSc2nnc(C)c(=O)[nH]2)c(C#N)c1C

IC50 [3]: > 100 µM (active)
IC50 (Bcl-2-like protein 10): > 100 µM (inactive)
SMILES: Cc1ccc(OCCSc2nnc(-c3ccncc3)n2C)cc1

IC50 [5]: > 100 µM (active)
SMILES: COc1ccccc1Cn1c(-c2ccccc2OC)nc2ccccc21
CC50 [4]: > 40 µM (active)

IC50 [6]: 92 µM (active)
AC50 (Caspase-8): 19.6 µM (active)
EC50 [8]: 17.4 µM (inactive)
AC50 (Caspase-6): 3.32 µM (active)
IC50 (Caspase-3): 96.6 µM (active)
IC50 [9]: 52.9 µM (active)
AC50 (Caspase-7): 20 µM (active)
SMILES: O=C1CN(C(=O)COC(=O)c2ccc([N+](=O)[O-])s2)c2ccccc2N1
IC50 [7]: 47.9 µM (active)

SMILES: COc1cccc(-c2ccc([C@@H]3[C@@H](CO)N4CCCCN(C(=O)Cc5ccncc5)C[C@@H]34)cc2)c1
AC50 [10]: > 26 µM (inactive)

IC50 [11]: 0.0194 µM (active)
SMILES: O=C(/C=C/c1ccc(F)cc1)N1CCN(S(=O)(=O)c2ccccc2F)CC1

SMILES: O=C(NCCN1CCC2(CC1)C(=O)NCN2Cc1ccc(Cl)cc1)c1ccc2ccccc2c1
IC50 (Phospholipase D2): 1.54 µM (active)
IC50 (Phospholipase D1): 6.78 µM (active)

SMILES: O=C(C1CCC1)N1C[C@@H]2N[C@H](C1)[C@@H]2c1ccc(/C=C/c2ccccc2)cc1
AC50 [12]: 11.5 µM (active)
AC50 [13]: 3.76 µM (active)

SMILES: O=C(Nc1ccc(C(F)(F)F)cc1)N1C[C@@H]2N[C@H](C1)[C@@H]2c1ccc(-c2cccnc2)cc1
AC50 [14]: 18.6 µM (active)
AC50 [15]: 0.022 µM (active)
AC50 [16]: 0.0354 µM (active)
AC50 [13]: 1.12 µM (active)
AC50 [17]: 0.0146 µM (active)

EC50 [18]: 10 µM (active)
SMILES: COC(=O)c1ccc(-n2c(C)cc(C(=O)CSc3ccc(N(C)C(C)=O)cc3)c2C)cc1

SMILES: CCOC(=O)c1c(-c2ccc(C(C)(C)C)cc2)csc1NC(=O)CN1CCN(CC)CC1
AC50 [19]: 11.9 µM (active)
AC50 [20]: 15.3 µM (active)
AC50 [21]: 9.03 µM (active)

SMILES: Cc1cc2c(OCC(CNC(C)(C)C)OC(=O)c3ccccc3)cccc2[nH]1 (stereo unspecified) [BOPINDOLOL]
IC50 [22]: 14.6 µM (inactive)
IC50 (cells): > 33.3 µM (inactive)
